Measured values from patent US20250282799A1, “SUBSTITUTED PYRIDO[4,3-d]PYRIMIDINES AS KRAS MODULATORS” (Alterome Therapeutics, Inc., priority 2023, published 2025).

System: KRAS G12V dependent lung adenocarcinoma cell line, NCI-H441
Assay: Cellular pERK (Thr202/Tyr204) FRET/HTRF assay
Format: cell-based
Description: “Ras” refers to a protein in the Ras superfamily of small GTPases, such as in the Ras subfamily. […] The Ras proteins play a critical role in the regulation of cell behaviors, including proliferation, differentiation, and survival. […] KRAS G12V, G12D, and G12S variants are common in human cancers and Ras inhibitors binding in or near the Switch II pocket may provide mutant binding selectivity. RAS mutations are known to be often associated with pancreatic, colorectal and non-small-cell lung carcinomas (Lone, A. M. et al. J. Am. Chem. Soc. 2011,133, 11665-74, which is entirely incorporated herein by reference; Dillon, M. B.; Bachovchin, D. A.; Brown, S. J.; Finn, M. G.; Rosen, H.; Cravatt, B. F.; Mowen, K. A. ACS Chem. Biol. 2012, 7, 1198-204, which is entirely incorporated herein by reference; Bachovchin, D. A.; Brown, S. J.; Rosen, H.; Cravatt, B. F. Nat. Biotechnol. 2009, 27, 387-94, Ostrem, J. M.; Peters, U.; Sos, M. L.; Wells, J. A.; Shokat, K. M. Nature 2013, 503, 548-551. Ryan M. B. and Corcoran R. B, Nat. Rev Clin Onco. 2018, 11, 709-720.). Ras proteins are key members in the Ras/Raf/Mitogen-activated protein kinase (MAPK) signaling pathway. This pathway regulates a wide variety of cellular processes, including proliferation, differentiation, apoptosis, and stress responses. One way to measure the impact of an inhibitor of Ras proteins is to measure downstream phosphorylation of proteins in the MAPK pathway. The MAPK pathway includes extracellular signal-regulated kinases named ERK1 and ERK2, which are serine-threonine kinases that regulate cellular signaling under both normal and oncogenic conditions. ERK expression and hyperactivation via phosphorylation plays a major role in cancer progression and are downstream of Ras proteins. The assay used for measuring the downstream impact of Ras inhibition is the use of a highly sensitive cell-based readout of ERK phosphorylation (pERK) specifically on Threonine (Thr) 202 and Tyrosine (Tyr) 204 in a KRAS G12V dependent lung adenocarcinoma cell line, NCI-H441 (ATCC Cat #HTB-174). The assay described herein is suitable for assessing inhibition of Ras and can be tailored for any of the predominant oncogenic mutations in any isoform of Ras (e.g., KRAS, HRAS, and NRAS) by changing the cell line.
pERK was measured using an advanced pERK assay designed for the robust and highly sensitive quantification of ERK phosphorylation on Thr202/Tyr204. This assay is intended for the simple, rapid, and direct detection of endogenous levels of ERK1/2 in cells, but only when ERK is phosphorylated at Thr202 and Tyr204 (Perkin Elmer Catalog #64AERPEH). pERK was detected in a FRET based sandwich assay format using 2 different specific antibodies, one labelled with Eu3+-Cryptate (donor) and the second with d2 (acceptor). When the dyes are in close proximity, the excitation of the donor with a light source (laser or flash lamp) triggers a Fluorescence Resonance Energy Transfer (FRET) towards the acceptor, which in turn fluoresces at a specific wavelength (665 nm). The specific signal modulates positively in proportion to p-ERK1/2 (Thr202/Tyr204). The simple mix-and-read protocol eliminates all wash steps for faster analysis and high-quality output. Briefly, cells were diluted to the desired concentration per well based on a growth curve showing ˜75% confluence within a 24-hour time period at no less than 95% viability. Cell suspension (24 μL) were added into each well of 384-well culture plate and maintained in 37° C. 5% CO2 incubator overnight prior to assay. All compounds were transferred to stock plates using TECAN (EVO200) liquid handler using DMSO as the solubilizing and dilution agent. Test compounds were transferred onto adherent cells using an Echo655 liquid handler. DMSO was employed as negative control. Cells were incubated with test compounds for 1 hr in a 37° C., 5% CO2 incubator following compound addition. […]

[1] = cellular pERK HTRF, NCI-H441 (KRAS G12V) cells
[2] = Homo sapiens, NCI-H441, cellular pERK (Thr202/Tyr204) HTRF, NCI-H441 cells

| IC50 [1] | IC50 [2] | Structure (SMILES) | other results |
| --- | --- | --- | --- |
| 500 to 10000 nM |  | [2H]C([2H])(Oc1nc(N2CCOC[C@H]3[C@H](F)[C@H]32)c2cc(C#N)c(-c3ccc(F)c4sc(N)c(C#N)c34)c(C)c2n1)[C@@]12CCCN1C[C@H](F)C2 (atropisomer, axis not shown; (aS)) [Example 441, (S)-7-(2-amino-3-cyano-7-fluorobenzo[b]thiophen-4-yl)-4-((1S,7S,8S)-8-fluoro-5-oxa-2-azabicyclo[5.1.0]octan-2-yl)-2-(((2R,7aS)-2-fluorotetrahydro-1H-pyrrolizin-7a(5H)-yl)methoxy-d2)-8-methylquinazoline-6-carbonitrile] |  |
| 500 to 10000 nM |  | [2H]C([2H])(Oc1nc(N2CCOC[C@H]3[C@H](F)[C@H]32)c2cc(F)c(-c3ccc(F)c4sc(N)c(C#N)c34)c(C)c2n1)[C@@]12CCCN1C[C@H](F)C2 (atropisomer, axis not shown; (aS)) [Example 450, 2-amino-7-fluoro-4-((S)-6-fluoro-4-((1S,7S,8S)-8-fluoro-5-oxa-2-azabicyclo[5.1.0]octan-2-yl)-2-(((2R,7aS)-2-fluorotetrahydro-1H-pyrrolizin-7a(5H)-yl)methoxy-d2)-8-methylquinazolin-7-yl)benzo[b]thiophene-3-carbonitrile] |  |
| < 50 nM |  | [2H]C([2H])(Oc1nc(N2CCOC[C@H]3[C@H](F)[C@H]32)c2cc(F)c(-c3ccc(F)c4sc(N)c(C#N)c34)c(C)c2n1)[C@@]12CCCN1C[C@H](F)C2 (atropisomer, axis not shown; (aS)) [Example 451, 2-amino-7-fluoro-4-((R)-6-fluoro-4-((1S,7S,8S)-8-fluoro-5-oxa-2-azabicyclo[5.1.0]octan-2-yl)-2-(((2R,7aS)-2-fluorotetrahydro-1H-pyrrolizin-7a(5H)-yl)methoxy-d2)-8-methylquinazolin-7-yl)benzo[b]thiophene-3-carbonitrile] |  |
| < 50 nM |  | [2H]C([2H])(Oc1nc(N2CCOC[C@H]3[C@H](F)[C@H]32)c2cc(F)c(-c3cc(O)cc4ccc(F)c(C#C)c34)c(F)c2n1)[C@@]12CCCN1C[C@H](F)C2 (atropisomer, axis not shown; (aS)) [Example 453, 4-((R)-6,8-difluoro-4-((1S,7S,8S)-8-fluoro-5-oxa-2-azabicyclo[5.1.0]octan-2-yl)-2-(((2R,7aS)-2-fluorotetrahydro-1H-pyrrolizin-7a(5H)-yl)methoxy-d2)quinazolin-7-yl)-5-ethynyl-6-fluoronaphthalen-2-ol] |  |
| 500 to 10000 nM |  | [2H]C([2H])(Oc1nc(N2CCOC[C@H]3[C@H](F)[C@H]32)c2cc(F)c(-c3cc(O)cc4ccc(F)c(C#C)c34)c(F)c2n1)[C@@]12CCCN1C[C@H](F)C2 (atropisomer, axis not shown; (aS)) [Example 454, 4-((S)-6,8-difluoro-4-((1S,7S,8S)-8-fluoro-5-oxa-2-azabicyclo[5.1.0]octan-2-yl)-2-(((2R,7aS)-2-fluorotetrahydro-1H-pyrrolizin-7a(5H)-yl)methoxy-d2)quinazolin-7-yl)-5-ethynyl-6-fluoronaphthalen-2-ol] |  |
|  |  | [2H]C([2H])(Oc1nc(N2CCOC[C@H]3[C@H](F)[C@H]32)c2cc(C(F)(F)F)c(-c3cccc4sc(N)c(C#N)c34)c(F)c2n1)[C@@]12CCCN1C[C@H](F)C2 (atropisomer, axis not shown; (aS)) [Example 466, 2-amino-4-((S)-8-fluoro-4-((1S,7S,8S)-8-fluoro-5-oxa-2-azabicyclo[5.1.0]octan-2-yl)-2-(((2R,7aS)-2-fluorotetrahydro-1H-pyrrolizin-7a(5H)-yl)methoxy-d2)-6-(trifluoromethyl)quinazolin-7-yl)benzo[b]thiophene-3-carbonitrile] | IC50 (Homo sapiens, NCI-H441, cellular pERK HTRF, NCI-H441 (KRAS G12V) cells): < 50 nM |
| 500 to 10000 nM |  | [2H]C([2H])(Oc1nc(N2CCOC[C@H]3[C@H](F)[C@H]32)c2cc(F)c(-c3cc(O)cc4ccc(F)c(C#C)c34)c(C)c2n1)[C@@]12CCCN1C[C@H](F)C2 (atropisomer, axis not shown; (aS)) [Example 467, 5-Ethynyl-6-fluoro-4-((R)-6-fluoro-4-((1S,7S,8S)-8-fluoro-5-oxa-2-azabicyclo[5.1.0]octan-2-yl)-2-(((2R,7aS)-2-fluorotetrahydro-1H-pyrrolizin-7a(5H)-yl)methoxy-d2)-8-methylquinazolin-7-yl)naphthalen-2-ol] |  |
| < 50 nM |  | [2H]C([2H])(Oc1nc(N2CCOC[C@H]3[C@H](F)[C@H]32)c2cc(C(F)(F)F)c(-c3cccc4sc(N)c(C#N)c34)c(F)c2n1)[C@@]12CCCN1C[C@H](F)C2 (atropisomer, axis not shown; (aS)) [Example 468, 2-amino-4-((R)-8-fluoro-4-((1S,7S,8S)-8-fluoro-5-oxa-2-azabicyclo[5.1.0]octan-2-yl)-2-(((2R,7aS)-2-fluorotetrahydro-1H-pyrrolizin-7a(5H)-yl)methoxy-d2)-6-(trifluoromethyl)quinazolin-7-yl)benzo[b]thiophene-3-carbonitrile] |  |
|  | < 50 nM | [2H]C1([2H])CC2(CC2)[C@@]2(C([2H])([2H])Oc3nc(N4CCOC[C@H]5[C@H](F)[C@H]54)c4cnc(-c5cc(N)cc6ccc(F)c(C#C)c56)c(F)c4n3)C[C@@]([2H])(F)CN12 (single isomer, unassigned) [Example 202] |  |
|  | < 50 nM | [2H]C1([2H])CC2(CC2)[C@@]2(C([2H])([2H])Oc3nc(N4CCOC[C@H]5[C@H](F)[C@H]54)c4cnc(-c5cc(N)cc6ccc(F)c(C#C)c56)c(F)c4n3)C[C@]([2H])(F)CN12 (single isomer, unassigned) [Example 203] |  |
|  | < 50 nM | [2H]C1([2H])CC2(CC2)[C@]2(C([2H])([2H])Oc3nc(N4CCOC[C@H]5[C@H](F)[C@H]54)c4cnc(-c5cc(N)cc6ccc(F)c(C#C)c56)c(F)c4n3)C[C@]([2H])(F)CN12 (single isomer, unassigned) [Example 204] |  |
|  | < 50 nM | [2H]C1([2H])CC2(CC2)[C@]2(C([2H])([2H])Oc3nc(N4CCOC[C@H]5[C@H](F)[C@H]54)c4cnc(-c5cc(N)cc6ccc(F)c(C#C)c56)c(F)c4n3)C[C@@]([2H])(F)CN12 (single isomer, unassigned) [Example 205] |  |
|  | < 50 nM | C#Cc1c(F)ccc2cc(N)cc(-c3ncc4c(N5CCOC[C@H]6[C@H](F)[C@H]65)nc(OC[C@@]56CCCN5C[C@H](C)C6)nc4c3F)c12 (single isomer, unassigned) [Example 208] |  |
|  | < 50 nM | C#Cc1c(F)ccc2cc(N)cc(-c3ncc4c(N5CCOC[C@H]6[C@H](F)[C@H]65)nc(OC[C@@]56CCCN5C[C@@H](C)C6)nc4c3F)c12 (single isomer, unassigned) [Example 209] |  |
|  | < 50 nM | C#Cc1c(F)ccc2cc(N)cc(-c3ncc4c(N5CCOC[C@H]6[C@H](F)[C@H]65)nc(OC[C@@]56CCCN5C[C@]5(CC5(F)F)C6)nc4c3F)c12 (single isomer, unassigned) [Example 210] |  |
|  | < 50 nM | C#Cc1c(F)ccc2cc(N)cc(-c3ncc4c(N5CCOC[C@H]6[C@H](F)[C@H]65)nc(OC[C@@]56CCCN5C[C@@]5(CC5(F)F)C6)nc4c3F)c12 (single isomer, unassigned) [Example 211] |  |
|  | < 50 nM | [2H]C([2H])(F)Oc1c(F)ccc2cc(N)cc(-c3ncc4c(N5CCOC[C@H]6[C@H](F)[C@H]65)nc(OC[C@@]56CCCN5C[C@@H](C)C6)nc4c3F)c12 (single isomer, unassigned) [Example 214] |  |
